From patent US20150239831A1, “INHIBITORS OF CENTRAL NERVOUS SYSTEM VASOACTIVE INHIBITORY PEPTIDE RECEPTOR 2” (The Trustees Of Columbia University In The City Of New York, priority 2012, published 2015)

Columns and labels:
Assay type in all cases: cell-based
Set-up in all cases: expressed in transfected cells; host or cells: HEK293 cells transfected with VIPR2 in pCDNA3.1 (as described)
VIPR2 [1] = target: T1, VIPR2 (Homo sapiens, UniProt P41587); assay: Inhibition of VIP-induced cAMP elevation (% Activity cAMP)
T1 sequence (P41587 24-438): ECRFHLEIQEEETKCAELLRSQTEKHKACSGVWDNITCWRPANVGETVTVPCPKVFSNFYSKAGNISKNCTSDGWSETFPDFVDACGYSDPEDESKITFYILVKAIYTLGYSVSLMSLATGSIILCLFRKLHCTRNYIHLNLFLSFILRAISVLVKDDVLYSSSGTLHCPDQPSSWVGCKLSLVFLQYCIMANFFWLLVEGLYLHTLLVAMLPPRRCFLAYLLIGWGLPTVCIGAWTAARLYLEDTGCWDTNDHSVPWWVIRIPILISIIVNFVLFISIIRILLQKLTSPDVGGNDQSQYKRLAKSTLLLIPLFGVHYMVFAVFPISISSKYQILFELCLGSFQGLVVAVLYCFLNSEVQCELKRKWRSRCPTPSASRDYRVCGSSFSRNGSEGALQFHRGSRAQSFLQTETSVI
Text: (§1) In a further non-limiting embodiment of the invention, the ability of a compound to inhibit VIPR2 and thereby […] a VIP-induced increase in cAMP may be measured using a Homogeneous Time-Resolved Fluorescence (“HTRF® assay; Cisbio Bioassays) as used in Chu et al., 2010, Molecular Pharmacol. 7795-101. In a method as used in Chu et al., 2010, Molecular Pharmacol. 7795-101, HEK293 cells may be transfected with nucleic acid encoding VIPR2, for example human VIPR2 (“hVIPR2”), for example comprised in a vector such as pCDNA3.1 vector. Successful transformants may then be selected, for example using 800 μg/ml G418. Clonal stable cell lines may then be generated by limited dilution to single cells and then may be clonally expanded and tested for VIP -dependent cAMP response. For the cAMP assay, about 3000-15,000 cells (in about 4-25 μl) may be placed in a well of an assay plate. The next day, inhibitor or test inhibitor and VIP may be added in a volume about 1-2 percent of the initial volume. Assay plates may then be returned to a cell incubator for 30 min before addition of a one-half volume of cAMP conjugate and, relative to the amount of cAMP conjugate, an equal volume of anti-cAMP conjugate (Cisbio). After at least 1 h of room-temperature incubation, HTRF signal may be read, for example using Viewlux or EnVision (PerkinElmer Life and Analytical Sciences, Waltham, Mass.). The ratio of […] at 665 nm and 620 nm times 10,000 may be calculated and plotted.
(§2) A series of compounds were prepared using a synthetic method analogous to that set forth in Scheme 1, above, and then tested for their ability to inhibit VIP-induced cAMP elevation and β-arrestin recruitment.
(§3) A series of compounds were prepared using a synthetic method analogous to that set forth in Scheme 1, above, and then tested for their ability to inhibit VIP-induced cAMP elevation and β-arrestin recruitment, as described herein (Discoverx Corporation, Fremont, Calif., US). Compound activities were also tested in a BRET-based assay, as described herein. The results are shown below in Tables 1-4, above.

VIPR2 [2] = target: T1, VIPR2; assay: Inhibition of VIP-induced β-arrestin recruitment (% Activity Arrestin)
Text: (§4) In a further non-limiting embodiment of the invention, the ability of a compound to inhibit VIPR2 GPCR activity may be tested, for example, using the PathHunter® eXpress β-Arrestin GPCR system (Discoverx Corporation, Fremont, Calif., US), as used by Chu et al., 2010, Molecular Pharmacol. 7795-101. In this assay, β-Arrestin is fused to the “Enzyme Acceptor” (“EA”), an N-terminal deletion mutant of β-gal, and the GPCR of interest is fused to a smaller (42 amino acids), weakly complementing portion of the β-gal enzyme (termed “ProLink™”). In cells that stably express these fusion proteins, the interaction of β-Arrestin and the GPCR following ligand stimulation forces the complementation of the two β-gal fragments resulting in the formation of a functional enzyme that converts substrate to detectable signal. In the absence of an interaction between the GPCR and β-Arrestin, the enzyme activity is low due to the low affinity of the two enzyme fragments. For example, a nucleic acid encoding VIPR2, for example hVIPR2, may be cloned into the ProLink vector (DiscoveRx) for GPCR-ProLink fusion protein production. Parental HEK293 cells that stably express β-arrestin2-β-gal-EA fusion protein (DiscoveRx) may be detached and transiently transfected with the VIPR2-containing vector using Fugene6 transfection reagent in suspension mode. Transfected cells in assay medium may be plated into test plates, for example at 15,000 cells/25 μl/well. After overnight incubation, 500 nl of an inhibitor or test inhibitor may be introduced into the test plate followed by 2 h incubation at 37° C., 5% CO2. Flash detection reagents may be added at 12.5 μl/well. After 5 min to 1 h of room-temperature incubation, the cell plates may be read on CLIPR (PerkinElmer Life and Analytical Sciences)or Acquest (Molecular Devices, Sunnyvale, Calif.) for luminescence signal.
as §2, §3

VIPR2 [3] = target: T1, VIPR2; assay: % Activity: inhibition of VIP-induced cAMP elevation and β-arrestin recruitment (Table 2)
Text: as §1, §4, §3

| inhibition at 0.5 µM (VIPR2 [1]; Batch 1) [%] | inhibition at 1 µM (VIPR2 [1]; Batch 1) [%] | inhibition at 5 µM (VIPR2 [1]; Batch 1) [%] | inhibition at 0.5 µM (VIPR2 [2]; Batch 1) [%] | inhibition at 1 µM (VIPR2 [2]; Batch 1) [%] | inhibition at 5 µM (VIPR2 [2]; Batch 1) [%] | % Activity (VIPR2 [3]) [%] | inhibition at 0.5 µM (VIPR2 [1]; Batch 3) [%] | inhibition at 1 µM (VIPR2 [1]; Batch 3) [%] | inhibition at 5 µM (VIPR2 [1]; Batch 3) [%] | inhibition at 0.5 µM (VIPR2 [2]; Batch 3) [%] | inhibition at 1 µM (VIPR2 [2]; Batch 3) [%] | inhibition at 5 µM (VIPR2 [2]; Batch 3) [%] | inhibition at 0.5 µM (VIPR2 [1]; Batch 2) [%] | inhibition at 1 µM (VIPR2 [1]; Batch 2) [%] | inhibition at 5 µM (VIPR2 [1]; Batch 2) [%] | inhibition at 0.5 µM (VIPR2 [2]; Batch 2) [%] | inhibition at 1 µM (VIPR2 [2]; Batch 2) [%] | inhibition at 5 µM (VIPR2 [2]; Batch 2) [%] | Structure (SMILES) |
| --- | --- | --- | --- | --- | --- | --- | --- | --- | --- | --- | --- | --- | --- | --- | --- | --- | --- | --- | --- |
| 11.7 | 12.9 | 9.4 | 1.7 | -28.8 | -10.6 | −0.6 |  |  |  |  |  |  |  |  |  |  |  |  | O=C(CCCCBr)NC[C@@H](O)C[C@@H](Cc1ccccc1)C(=O)N[C@H]1c2ccccc2C[C@H]1O [Compound A15] |
|  |  |  |  |  |  | 6.75 | -4.3 | 32.3 | 3 | -9.8 | -1.8 | 10.5 |  |  |  |  |  |  | CC(=O)Nc1ccc(S(=O)(=O)NC[C@H](C[C@@H](Cc2ccccc2)C(=O)N[C@H]2c3ccccc3C[C@H]2O)OC(C)=O)cc1 [Compound X089] |
| 14.9 | 17.7 | 20.3 | 6.1 | 32.7 | 5.5 | 12.9 |  |  |  |  |  |  |  |  |  |  |  |  | O=C(NC[C@@H](O)C[C@@H](Cc1ccccc1)C(=O)N[C@H]1c2ccccc2C[C@H]1O)c1ccccn1 [Compound A17] |
|  |  |  |  |  |  | 10.55 |  |  |  |  |  |  | 15.5 | 10.6 | 14.3 | -4 | 3.6 | 6.8 | O=C(NC1CCCCCC1)[C@@H](Cc1ccccc1)C[C@H](O)CNS(=O)(=O)c1ccc([N+](=O)[O-])cc1 [Compound B5B] |
|  |  |  |  |  |  | 6.05 |  |  |  |  |  |  | -1 | 1.5 | 4.9 | -0.3 | -4.1 | 7.2 | O=C(NCc1ccccc1)[C@@H](Cc1ccccc1)C[C@H](O)CNS(=O)(=O)c1ccc([N+](=O)[O-])cc1 [Compound B3B] |
|  |  |  |  |  |  | −1.2 |  |  |  |  |  |  | -5 | -2.5 | -2.8 | 13.4 | -1.3 | 0.4 | CC1CCC(NC(=O)[C@H](Cc2ccccc2)C[C@H](O)CNS(=O)(=O)c2ccc([N+](=O)[O-])cc2)CC1 (some centres unmarked) [Compound B8A] |
| 17.6 | 14.3 | 9.1 | 36.4 | 35.1 | 26.1 | 17.6 |  |  |  |  |  |  |  |  |  |  |  |  | O=C(NC[C@@H](O)C[C@@H](Cc1ccccc1)C(=O)N[C@H]1c2ccccc2C[C@H]1O)c1ccccc1[N+](=O)[O-] [G] |
|  |  |  |  |  |  | 10.65 |  |  |  |  |  |  | -1.1 | -1.3 | -2.9 | 1.8 | 4.4 | 24.2 | O=C(NCc1ccccc1)[C@H](Cc1ccccc1)C[C@H](O)CNS(=O)(=O)c1ccc([N+](=O)[O-])cc1 [Compound B3A] |
|  |  |  |  |  |  | 9.0000 |  |  |  |  |  |  | 5.1 | 6.6 | 17.4 | 4.8 | 6.9 | 0.6 | O=C(NC1CCCc2ccccc21)[C@@H](Cc1ccccc1)C[C@H](O)CNS(=O)(=O)c1ccc([N+](=O)[O-])cc1 (some centres unmarked) [Compound B13B] |
| 20.8 | 20.2 | 26.6 | 45.8 | 16.1 | 25.8 | 26.2 |  |  |  |  |  |  |  |  |  |  |  |  | C#CCCCC(=O)NC[C@@H](O)C[C@@H](Cc1ccccc1)C(=O)N[C@H]1c2ccccc2C[C@H]1O [Compound A23] |
|  |  |  |  |  |  | 13.85 |  |  |  |  |  |  | 8.8 | 12.4 | 17.5 | 3.3 | 7.4 | 10.2 | O=C(NC1CCCc2ccccc21)[C@H](Cc1ccccc1)C[C@H](O)CNS(=O)(=O)c1ccc([N+](=O)[O-])cc1 (some centres unmarked) [Compound B13A] |
|  |  |  |  |  |  | 8.25 | 0.6 | 1.5 | 26.9 | -3.4 | -1.2 | -10.4 |  |  |  |  |  |  | CCC(=O)Nc1ccc(S(=O)(=O)NC[C@@H](O)C[C@@H](Cc2ccccc2)C(=O)N[C@H]2c3ccccc3C[C@H]2O)cc1 [Compound X091] |
|  |  |  |  |  |  | −1.15 |  |  |  |  |  |  | -4.8 | -4.8 | 0.5 | -10.2 | -11.5 | -2.8 | O=C([C@H](Cc1ccccc1)C[C@H](O)CNS(=O)(=O)c1ccc([N+](=O)[O-])cc1)N1CCCCC1 [Compound B18A] |
|  |  |  |  |  |  | −6.85 | -6.3 | -7.3 | -1.4 | 0 | -17.3 | -12.3 |  |  |  |  |  |  | O=C(N[C@H]1c2ccccc2C[C@H]1O)[C@H](Cc1ccccc1)C[C@H](O)CNS(=O)(=O)c1ccc(C(=O)N2CCCCC2)cc1 [Compound X101] |
| 19.5 | 18.6 | 90 | 29.7 | 30.9 | 8.3 | 49.15 |  |  |  |  |  |  |  |  |  |  |  |  | CC(C)c1cc(C(C)C)c(S(=O)(=O)NC[C@@H](O)C[C@@H](Cc2ccccc2)C(=O)N[C@H]2c3ccccc3C[C@H]2O)c(C(C)C)c1 [J] |
| 11.8 | 15.9 | 15.2 | 3.7 | 1.4 | 19.7 | 17.45 |  |  |  |  |  |  |  |  |  |  |  |  | NC[C@@H](O)C[C@@H](Cc1ccccc1)C(=O)N[C@H]1c2ccccc2C[C@H]1O [Compound A28] |
|  |  |  |  |  |  | 16.2 | 17.2 | 18.2 | 20.6 | 8.1 | -2 | 11.8 |  |  |  |  |  |  | CC(C)Nc1ccc(S(=O)(=O)NC[C@@H](O)C[C@@H](Cc2ccccc2)C(=O)N[C@H]2c3ccccc3C[C@H]2O)cc1 [Compound X085] |
